The values below come from US20100203033A1, “Kits, formulations and solutions having enzymatically- permissive amounts of visualization agents and uses thereof” (priority 2007, published 2010).

Data set [1] deals with T1, thrombin (Homo sapiens, UniProt P00734). Description: Thrombin clotting activity of dyed thrombin with or without exposure to day light. It is filed as biochemical. Details: measuring thrombin clotting activity in the different formulations. The note with it: 0.02% dye in thrombin solution, uncovered, 6 hours day light. On the procedure: (§1) Briefly, standard solution of thrombin (4, 6, 8 and 10 IU/ml) or the test sample were incubated for 2 minutes at 30° C. Then 40 μl thrombin solution of each solution were mixed with 160 μl fibrinogen solution (0.1%; Enzyme research; cat No FIB1 2800L) and clotting time was measured. A calibration curve of log clotting times vs. log thrombin concentration was plotted using the standards. Thrombin activity in the different formulations was determined by the clotting time obtained (calculated automatically by a clotting machine, interpolated from the calibration curve and multiplied by the dilution factor).
In the adhesion prevention indications the dye may be added to the thrombin component prior to mixing it with BAC. The present experiment was carried out to assess the effect of visualization agent addition to thrombin solution on thrombin clotting activity. Two dyes were evaluated: Indigo Carmine (IC) and Methylene Blue (MB). […] The effect of the dyes on thrombin activity with or without exposure to day light was assessed. The thrombin clotting activity was measured as indicated above in Example 1. […] The samples were mixed with the same fibrinogen solution and the thrombin activity was calculated from the calibration curve. […]
Thrombin activity and the color intensity (OD of IC at 610 nm and of MB at 663 nm) were measured at TO and after exposure to day light for 6 hours. […]

Data set [2] concerns the target T1, thrombin. Kind of data set: Thrombin clotting activity of dyed thrombin formulations (modified European Pharmacopeia Assay 0903/1997). It is filed as biochemical. Details: measuring thrombin clotting activity in the different formulations. The method, then: The present study was aimed to determine the effect of dye addition to the fibrin glue formulation on thrombin activity. […] The compatibility of the dyes with thrombin was tested by measuring thrombin clotting activity in the different formulations according to the following modified, European Pharmacopeia Assay (0903/1997), procedure.
as §1

For data set [3], the target named is T1, thrombin. Description: Drop test model after freeze and thaw (F&T) of dyed thrombin. It counts as biochemical. Set-up: 5 ml of a thrombin solution 5 folds diluted (final: 200 IU/ml). On the procedure: (§2) Human thrombin was mixed with different dyes to final dye concentrations of 0.005-0.2%. The influence of dyes on clotting kinetics was tested using the drop test model. Briefly, measurements of fibrin clotting kinetics were performed on an inclined plane in a device powered by a Nitrogen pressure of 7×10^5 Pa. In each experiment 5 ml of Biological Active Component (BAC) and 5 ml of a thrombin solution 5 folds diluted (final: 200 IU/ml) (in 40 mM CaCl2) were pumped into a separate syringe. […] These two solutions were released (about ⅛ of each) simultaneously, and a mixed drop falls onto a slanted surface. The drop leaks down the slope until a clot is formed. The distance traveled by the drops was recorded on a millimetric paper sheet placed on the slanted surface. […] The migration lengths of the fibrin sealant with the different formulations are listed below in Table 2.
Human thrombin was formulated with methylene blue, crystal violet, bromothymol blue or riboflavin at final concentrations of 0.005-0.1%. The different formulations were fast frozen to −35° C. and then thawed. The effect of the freeze and thaw procedure on thrombin clotting activity was evaluated using the drop test model (migration time assay as in Example 2).

In data set [4] the target is T1, thrombin. Description: Drop test model: migration length of fibrin sealant on a slanted surface (clotting kinetics). It counts as biochemical. Set-up: 5 ml of a thrombin solution 5 folds diluted (final: 200 IU/ml). On the procedure:
as §2

A short description of data set [5]: Solubility of indigo carmine in thrombin solution by visual inspection. It is filed as physicochemical. The method, then:
The present example was aimed to determine the maximal solubility of indigo carmine in the thrombin component of the fibrin sealant. Thrombin final container (Omrix, 1,000 IU/ml, 5 ml) was mixed with 1% indigo carmine (dissolved in purified water) to a final concentration of 0.2, 0.21, 0.22, 0.25 or 0.3 mg/ml. The prepared solutions were mixed on a roller for 30 min at room temperature and the solubility limit of the dye was determined by visual inspection.

The mark [6] stands for this setting: dye concentration within the thrombin component 0.01%.
Setting [7] is: dye concentration within the thrombin component 0.05%.
[8] abbreviates: dye concentration within the thrombin component 0.1%.
[9] abbreviates: dye concentration within the thrombin component 0.2%.
[10] abbreviates: dye 0.005% in thrombin component.
Where [11] appears, read: dye concentration within the thrombin component 0.005%.
Where [12] appears, read: dye concentration within the thrombin component 0.02%.

The structures appear in SMILES notation.

As for `CN(C)c1ccc2nc3ccc(=[N+](C)C)cc-3sc2c1` [Methylene Blue], in data set [1], the “reduction in thrombin activity” value is listed as “about 50%”. The Recovered activity is on record as 92% in data set [2] (setting [6]), 97% in data set [2] (setting [7]), 90% in data set [2] (setting [8]) and 89% in data set [2] (setting [9]). In addition, the “Thrombin Activity” value is given as 1018 IU/ml in data set [2] (setting [6]), 1070 IU/ml in data set [2] (setting [7]), 991 IU/ml in data set [2] (setting [8]) and 978 IU/ml in data set [2] (setting [9]). The Migration length in data set [3] (dye 0.1% in thrombin component) came out at 8.4 cm; in data set [4] (setting [8]), 10.7 cm; in data set [4] (setting [9]), 14.3 cm.
Turning to `CN(C)c1ccc(C(=C2C=CC(=[N+](C)C)C=C2)c2ccc(N(C)C)cc2)cc1` [Crystal Violet], the Recovered activity in data set [2] (setting [6]) stood at 106%; in data set [2] (setting [7]) it was 94%; in data set [2] (setting [8]), 49%; in data set [2] (setting [9]) it was 22%. The “Thrombin Activity” value in data set [2] (setting [6]) is recorded as 1125 IU/ml; in data set [2] (setting [7]), 995 IU/ml; in data set [2] (setting [8]), 516 IU/ml; in data set [2] (setting [9]) it was 234 IU/ml. The Migration length is 16.3 cm in data set [3] (setting [10]), 12.1 cm in data set [4] (setting [11]), 23.9 cm in data set [4] (setting [6]) and more than 25 cm in data set [4] (setting [7]).
Turning to `Cc1cc2nc3c(=O)[nH]c(=O)nc-3n(C[C@H](O)[C@H](O)[C@H](O)CO)c2cc1C` [Riboflavin], the Migration length in data set [3] (setting [10]) came to 19.8 cm; in data set [4] (setting [11]), 11.5 cm; in data set [4] (setting [6]), 13.3 cm; in data set [4] (setting [12]) it was 22.9 cm.
`CN(C)c1ccc(N=Nc2ccc(S(=O)(=O)[O-])cc2)cc1.[Na+]` [Methyl Orange, Methyl Orange Sodium Salt]: the Migration length was 8.26 cm in data set [4] (setting [11]) and 7.6 cm in data set [4] (setting [6]).
For the molecule `O=C1/C(=C2\Nc3ccc(S(=O)(=O)O)cc3C2=O)Nc2ccc(S(=O)(=O)O)cc21` [indigo carmine, Indigotindisulfonate sodium], in data set [5] (0.02% indigo carmine dyed thrombin solution, about 30 min at 2-8 °C), the “effect of storage at 2-8 °C” value was “sedimentation”. The “effect of incubation at room temperature after refrigeration” value in data set [5] (0.02% indigo carmine dyed thrombin solution, after over night incubation at 2-8 °C) is recorded as “re-dissolution of the particulate sample”. In addition, the “result of visual inspection above the solubility limit” value in data set [5] (0.21, 0.22, 0.25 and 0.3 mg/ml in thrombin solution) is given as “aggregate formation”. In addition, the “concentration at which complete dissolution of the sample was obtained” value in data set [5] (thrombin final container 1,000 IU/ml, 30 min on roller at room temperature) is 200 µg/mL.
`CN(C)c1ccc(/N=N/c2ccccc2C(=O)O)cc1` [Methyl Red, Methyl red]: the figures for the Migration length in data set [4] (dye dilution 01:26) and in data set [4] (dye dilution 01:51) were 12.4 cm and 10.2 cm, respectively.
Regarding `Cc1c(C2(c3cc(C(C)C)c(O)c(Br)c3C)OS(=O)(=O)c3ccccc32)cc(C(C)C)c(O)c1Br` [Bromothymol Blue], the Migration length is on record as more than 25 cm in data set [3] (dye 0.02% in thrombin component), 9.7 cm in data set [4] (setting [6]) and 11.9 cm in data set [4] (setting [12]).
